In patent US20250368647A1, “NITROGEN CONTAINING CONDENSED 2,3-DIHYDROQUINAZOLINONE COMPOUNDS AS NAV1.8 INHIBITORS” (GLAXOSMITHKLINE INTELLECTUAL PROPERTY DEVELOPMENT LIMITED, priority 2022, published 2025):
Like-named read-outs stand apart in the source and are kept apart here.

Assays:
[1] = biological target: human Nav1.8 (Homo sapiens (Human), UniProt Q9Y5Y9); assay: QPatch 48 HTX voltage-clamp electrophysiology, half inactivation state (V1/2) protocol, HEK293-Nav1.8 cells; type: cell-based; conditions: HEK293 cells expressing human Nav1.8, human Navβ1 and human TREK1, P2 current; for IC50: read-out: Nav1.8, pIC50 (converted)
Sequence of human Nav1.8 (Q9Y5Y9 whole entry): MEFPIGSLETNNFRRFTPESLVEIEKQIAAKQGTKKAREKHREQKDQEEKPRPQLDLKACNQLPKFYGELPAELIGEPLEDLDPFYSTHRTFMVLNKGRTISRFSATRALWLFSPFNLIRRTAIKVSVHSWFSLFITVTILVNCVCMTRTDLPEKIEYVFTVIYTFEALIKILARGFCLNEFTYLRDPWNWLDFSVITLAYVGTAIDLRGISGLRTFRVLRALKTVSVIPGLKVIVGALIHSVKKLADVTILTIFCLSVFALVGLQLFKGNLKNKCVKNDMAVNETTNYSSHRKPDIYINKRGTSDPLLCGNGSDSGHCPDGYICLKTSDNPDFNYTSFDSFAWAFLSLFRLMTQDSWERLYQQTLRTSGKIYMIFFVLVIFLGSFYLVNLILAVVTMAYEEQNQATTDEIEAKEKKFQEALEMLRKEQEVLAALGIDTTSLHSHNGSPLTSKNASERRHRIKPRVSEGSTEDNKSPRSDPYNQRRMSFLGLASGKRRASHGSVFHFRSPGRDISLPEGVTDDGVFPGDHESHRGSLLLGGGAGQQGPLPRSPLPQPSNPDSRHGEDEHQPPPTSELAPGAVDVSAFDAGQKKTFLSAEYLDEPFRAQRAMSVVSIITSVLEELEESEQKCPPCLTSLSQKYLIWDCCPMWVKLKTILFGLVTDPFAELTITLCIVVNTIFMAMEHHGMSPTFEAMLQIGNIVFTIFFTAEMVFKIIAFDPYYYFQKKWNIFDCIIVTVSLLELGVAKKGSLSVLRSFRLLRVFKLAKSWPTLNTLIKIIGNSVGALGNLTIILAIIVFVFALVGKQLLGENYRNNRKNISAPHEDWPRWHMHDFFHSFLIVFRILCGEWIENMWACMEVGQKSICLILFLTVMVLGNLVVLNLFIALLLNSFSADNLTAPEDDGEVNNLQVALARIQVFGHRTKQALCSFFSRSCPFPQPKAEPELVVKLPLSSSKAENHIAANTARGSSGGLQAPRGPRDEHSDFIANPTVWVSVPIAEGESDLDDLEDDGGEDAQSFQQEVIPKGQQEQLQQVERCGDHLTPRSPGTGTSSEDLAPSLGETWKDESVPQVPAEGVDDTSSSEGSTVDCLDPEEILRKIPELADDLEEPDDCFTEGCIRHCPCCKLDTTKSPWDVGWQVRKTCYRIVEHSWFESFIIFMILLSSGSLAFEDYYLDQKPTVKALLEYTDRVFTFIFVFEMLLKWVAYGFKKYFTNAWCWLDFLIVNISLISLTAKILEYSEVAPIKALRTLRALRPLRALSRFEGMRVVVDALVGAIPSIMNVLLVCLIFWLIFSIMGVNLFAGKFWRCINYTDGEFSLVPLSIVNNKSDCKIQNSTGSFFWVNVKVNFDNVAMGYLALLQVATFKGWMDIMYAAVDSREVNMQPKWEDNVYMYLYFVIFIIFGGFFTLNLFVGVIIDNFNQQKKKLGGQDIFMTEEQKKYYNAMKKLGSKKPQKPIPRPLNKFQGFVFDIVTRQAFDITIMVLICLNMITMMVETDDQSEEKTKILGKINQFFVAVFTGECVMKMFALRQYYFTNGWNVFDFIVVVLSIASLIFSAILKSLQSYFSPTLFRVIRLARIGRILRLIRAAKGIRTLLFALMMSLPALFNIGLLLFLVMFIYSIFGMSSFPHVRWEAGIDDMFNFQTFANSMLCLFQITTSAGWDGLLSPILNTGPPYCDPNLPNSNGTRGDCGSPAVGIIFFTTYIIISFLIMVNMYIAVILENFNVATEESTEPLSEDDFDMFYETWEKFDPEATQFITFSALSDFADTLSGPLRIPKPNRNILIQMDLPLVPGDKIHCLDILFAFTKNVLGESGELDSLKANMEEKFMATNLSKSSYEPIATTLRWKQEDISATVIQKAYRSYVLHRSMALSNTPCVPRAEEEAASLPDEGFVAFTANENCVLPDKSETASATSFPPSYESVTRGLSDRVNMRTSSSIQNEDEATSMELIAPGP
Sequence of human Nav1.8 (Q07699 19-218 partner): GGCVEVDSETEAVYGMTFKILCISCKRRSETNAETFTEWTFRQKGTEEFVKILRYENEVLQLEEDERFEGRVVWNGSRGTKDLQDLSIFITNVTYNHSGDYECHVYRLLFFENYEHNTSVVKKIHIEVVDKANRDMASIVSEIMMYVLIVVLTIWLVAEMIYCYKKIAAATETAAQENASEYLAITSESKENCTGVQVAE
In short: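 HEK293 cells co-expressing Navβ1 and TREK1 were voltage-clamped from −100 mV: a 20 ms step to 0 mV, 8 s inactivation at −46 mV, 20 ms at −100 mV, then a 20 ms P2 test step to 0 mV, repeated every 15 s. P2 current was normalized to vehicle and full block, corrected for run-down, and Hill-fitted (4–6 concentrations) for IC50.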

## COc1ccc(NC(=O)c2cc(Cl)c(F)cc2Br)c(N(CCCc2cc(F)ccc2N)C(=O)OC(C)(C)C)n1
The molecule shown is the open-chain precursor, other bond, 13-membered ring, CuI/DIEA, DMF, 21.9 mM, 95.0 °C
  ring closure, isolated yield: 29%

## COc1ccc2c(n1)C(C)(C)CN(C(=O)OC(C)(C)C)Cc1cc(F)ccc1Nc1cc(C(F)(F)F)c(F)cc1C(=O)N2
From COC(=O)c1cc(F)c(C(F)(F)F)cc1Nc1ccc(F)cc1CN(CC(C)(C)c1nc(OC)ccc1N)C(=O)OC(C)(C)C, amide bond, 13-membered ring, LiHMDS, THF, 104.0 mM, 16.0 h
  ring closure, isolated yield: 46%

## COc1ccc2c(n1)C=CCCc1cc(F)ccc1N1CN2C(=O)c2cc(C(F)(F)F)ncc21
From C=CCCc1cc(F)ccc1N1CN(c2ccc(OC)nc2/C=C\C)C(=O)c2cc(C(F)(F)F)ncc21, rcm bond, 11-membered ring, Hoveyda-Grubbs II, DCE, 80.0 °C, 18.5 h
  ring closure, isolated yield: 3%

## COc1ccc2c(n1)C=CCc1cc(F)ccc1N1CN2C(=O)c2cc(C(F)(F)F)ccc21
From C=CCc1cc(F)ccc1N1CN(c2ccc(OC)nc2C=C)C(=O)c2cc(C(F)(F)F)ccc21, rcm bond, 10-membered ring, Hoveyda-Grubbs II (20 mol%), DCE, 1.38 mM, 80.0 °C, 4.0 h
  ring closure, isolated yield: 72%

## COc1ccc2c(n1)CC=CCCc1cc(F)ccc1N1CN2C(=O)c2cc(C(F)(F)F)ccc21
From C=CCCc1cc(F)ccc1N1CN(c2ccc(OC)nc2CC=C)C(=O)c2cc(C(F)(F)F)ccc21, rcm bond, 12-membered ring, Hoveyda-Grubbs II (20 mol%), DCE, 50.3 mM, 80.0 °C, 18.0 h
  ring closure, isolated yield: 67%

## COc1ccc2c(n1)CC=CCc1cc(F)ccc1N1CN2C(=O)c2cc(C(F)(F)F)ccc21
From C=CCc1cc(F)ccc1N1CN(c2ccc(OC)nc2CC=C)C(=O)c2cc(C(F)(F)F)ccc21, rcm bond, 11-membered ring, Hoveyda-Grubbs II (20 mol%), DCE, 8.6 mM, 80.0 °C, 16.0 h
  ring closure, isolated yield: 68%

## COc1ccc2c(n1)CC=CCc1cc(F)ccc1N1CN2C(=O)c2ccc(C(F)(F)F)cc21
From C=CCc1cc(F)ccc1N1CN(c2ccc(OC)nc2CC=C)C(=O)c2ccc(C(F)(F)F)cc21, rcm bond, 11-membered ring, Hoveyda-Grubbs II (20 mol%), DCE, 8.6 mM, 80.0 °C, 16.0 h
  ring closure, isolated yield: 52%

## COc1ccc2c(n1)CCC=CCc1cc(F)ccc1N1CN2C(=O)c2cc(Cl)cnc21
From C=CCCc1nc(OC)ccc1N1CN(c2ccc(F)cc2CC=C)c2ncc(Cl)cc2C1=O, rcm bond, 12-membered ring, Hoveyda-Grubbs II, DCE, 80.0 °C, 1.0 h
  ring closure, isolated yield: 51%

## COc1ccc2c(n1)N(C(=O)OC(C)(C)C)CCCc1c(ccc(F)c1F)Nc1cc(C(F)(F)F)c(F)cc1C(=O)N2
From COc1ccc(N)c(N(CCCc2c(Nc3cc(C(F)(F)F)c(F)cc3C(=O)O)ccc(F)c2F)C(=O)OC(C)(C)C)n1, amide bond, 13-membered ring, PyOxim/DIEA, DMF, 129.0 mM, 24.0 h
  ring closure, isolated yield: 72%

## COc1ccc2c(n1)N(C(=O)OC(C)(C)C)CCCc1cc(F)ccc1Nc1ccc(C(F)(F)F)cc1C(=O)N2
From COc1ccc(N)c(N(CCCc2cc(F)ccc2Nc2ccc(C(F)(F)F)cc2C(=O)O)C(=O)OC(C)(C)C)n1, amide bond, 13-membered ring, PyOxim/DIEA, DMF, 95.4 mM, 2.0 h
  ring closure, isolated yield: 80%

## COc1ccc2c(n1)NCCCCc1cc(F)ccc1N1CN2C(=O)c2cc(C(F)(F)F)ccc21
From COc1ccc(N2CN(c3ccc(F)cc3CCCCN)c3ccc(C(F)(F)F)cc3C2=O)c(Br)n1, cn_pd bond, 12-membered ring, Pd2(dba)3/BINAP/NaOtBu, toluene, 71.0 mM, 90.0 °C, 3.0 h
  ring closure, isolated yield: 40%

## COc1ccc2c(n1)NCCOCc1cc(F)ccc1N1CN2C(=O)c2cc(F)c(C(F)(F)F)cc21
From COc1ccc(N2CN(c3ccc(F)cc3COCCN)c3cc(C(F)(F)F)c(F)cc3C2=O)c(Br)n1, cn_pd bond, 12-membered ring, Pd2(dba)3/BINAP/NaOtBu, toluene, 46.4 mM, 100.0 °C, 4.0 h
  ring closure, isolated yield: 37%

## O=C1c2cc(C(F)(F)F)ccc2N2CN1c1ccncc1CC=CCCc1cc(F)ccc12
From C=CCCc1cc(F)ccc1N1CN(c2ccncc2CC=C)C(=O)c2cc(C(F)(F)F)ccc21, rcm bond, 12-membered ring, Greencat-iPr, DCE, 80.0 °C, 4.0 h
  ring closure, isolated yield: 40%

## 3^4-fluoro-1^6-methoxy-2^7-(trifluoromethyl)-2^1,2^2,2^3,2^4-tetrahydro-4-oxa-2(3,1)-quinazolina-1(3,2)-pyridina-3(1,2)-benzenacyclo octaphane-6-en-2^4-one
Rcm bond, 12-membered ring, Hoveyda-Grubbs M722 (Grubbs C711), 80.0 °C
  ring closure, isolated yield: 7%

## C[C@H]1NCCc2[nH]c(=O)ccc2N2CN(c3cc(Cl)c(F)cc3C2=O)c2ccc(F)cc21 [Example 121, (10R)-3-chloro-2,8-difluoro-10-methyl-10,11,12,13-tetrahydro-19H-5,18-methanodibenzo[c,f]pyrido[3,2-j][1,5,9]triazacyclotridecine-15,19(14H)-dione]
[1]
  Nav1.8, pIC50: 7.4

## C[C@@H]1NCCc2[nH]c(=O)ccc2N2CN(c3cc(Cl)c(F)cc3C2=O)c2ccc(F)cc21 [Example 122, (10S)-3-chloro-2,8-difluoro-10-methyl-10,11,12,13-tetrahydro-19H-5,18-methanodibenzo[c,f]pyrido[3,2-j][1,5,9]triazacyclotridecine-15,19(14H)-dione]
[1]
  Nav1.8, pIC50: 5.9

## CCC1NCCc2[nH]c(=O)ccc2N2CN(c3cc(C(F)(F)F)c(F)cc3C2=O)c2ccc(F)cc21.Cl (stereo not drawn) [Example 126, 10-Ethyl-2,8-difluoro-3-(trifluoromethyl)-10,11,12,13-tetrahydro-19H-5,18-methanodibenzo[c,f]pyrido[3,2-j][1,5,9]triazacyclotridecine-15,19(14H)-dione hydrochloride]
[1]
  Nav1.8, pIC50: 7

## CC[C@H]1NCCc2[nH]c(=O)ccc2N2CN(c3cc(C(F)(F)F)c(F)cc3C2=O)c2ccc(F)cc21 [Example 127, (10R)-10-ethyl-2,8-difluoro-3-(trifluoromethyl)-10,11,12,13-tetrahydro-19H-5,18-methanodibenzo[c,f]pyrido[3,2-j][1,5,9]triazacyclotridecine-15,19(14H)-dione]
[1]
  IC50: 63.1 nM

## CC[C@@H]1NCCc2[nH]c(=O)ccc2N2CN(c3cc(C(F)(F)F)c(F)cc3C2=O)c2ccc(F)cc21 [Example 128, (10S)-10-ethyl-2,8-difluoro-3-(trifluoromethyl)-10,11,12,13-tetrahydro-19H-5,18-methanodibenzo[c,f]pyrido[3,2-j][1,5,9]triazacyclotridecine-15,19(14H)-dione]
[1]
  IC50: 631 nM

## O=C1c2cc(F)c(C(F)(F)F)cc2N2CN1c1ccc(=O)[nH]c1NCCOCc1cc(F)ccc12 [Example 129, 2^6,3^4-Difluoro-2^7-(trifluoromethyl)-1^1,1^2,2^1,2^2,2^3,2^4-hexahydro-5-oxa-8-aza-2(3,1)-quinazolina-1(5,6)-pyridina-3(1,2)-benzenacyclooctaphane-1^2,2^4-dione]
[1]
  Nav1.8, pIC50: 6.4

## CC1CCc2c(ccc(F)c2F)N2CN(C(=O)c3cc(F)c(C(F)(F)F)cc32)c2ccc(=O)[nH]c2N1 (stereo not drawn) [Example 130, 2,8,9-Trifluoro-12-methyl-3-(trifluoromethyl)-10,11,12,13-tetrahydro-19H-5,18-methanodibenzo[f,i]pyrido[2,3-b][1,4,8]triazacyclotridecin-15,19(14H)-dione]
[1]
  Nav1.8, pIC50: 6.8

## C[C@H]1CCNc2[nH]c(=O)ccc2N2CN(c3cc(C(F)(F)F)c(F)cc3C2=O)c2ccc(F)c(F)c21 [Example 132, (10S)-2,8,9-trifluoro-10-methyl-3-(trifluoromethyl)-10,11,12,13-tetrahydro-19H-5,18-methanodibenzo[f,i]pyrido[2,3-b][1,4,8]triazacyclotridecine-15,19(14H)-dione]
[1]
  IC50: 6.31 nM

## C[C@@H]1CCNc2[nH]c(=O)ccc2N2CN(c3cc(C(F)(F)F)c(F)cc3C2=O)c2ccc(F)c(F)c21 [Example 133, (10R)-2,8,9-trifluoro-10-methyl-3-(trifluoromethyl)-10,11,12,13-tetrahydro-19H-5,18-methanodibenzo[f,i]pyrido[2,3-b][1,4,8]triazacyclotridecine-15,19(14H)-dione]
[1]
  IC50: 39.8 nM

## CC1(C)CNCc2cc(F)ccc2N2CN(C(=O)c3cc(F)c(C(F)(F)F)cc32)c2ccc(=O)[nH]c21 [Example 134, 2,8-Difluoro-13,13-dimethyl-3-(trifluoromethyl)-10,11,12,13-tetrahydro-19H-5,18-methanodibenzo[c,f]pyrido[3,2-j][1,5,9]triazacyclotridecine-15,19(14H)-dione]
[1]
  Nav1.8, pIC50: 7.3

## Cl.O=C1c2cc(F)c(C(F)(F)F)cc2N2CN1c1ccc(=O)[nH]c1NCCNCc1c2ccc(F)c1F [Example 135, 2^6,3^3,3^4-Trifluoro-2^7-(trifluoromethyl)-1^1,1^2,2^1,2^2,2^3,2^4-hexahydro-5,8-diaza-2(3,1)-quinazolina-1(5,6)-pyridina-3(1,2)-benzenacyclooctaphane-1^2,2^4-dione hydrochloride]
[1]
  Nav1.8, pIC50: 7.4

## C[C@H]1NCCCc2[nH]c(=O)ccc2N2CN(c3cc(C(F)(F)F)c(F)cc3C2=O)c2ccc(F)cc21 [Example 136, (4R)-2^6,3^4-Difluoro-4-methyl-2^7-(trifluoromethyl)-1^1,1^2,2^1,2^2,2^3,2^4-hexahydro-5-aza-2(3,1)-quinazolina-1(5,6)-pyridina-3(1,2)-benzenacyclooctaphane-1^2,2^4-dione]
[1]
  Nav1.8, pIC50: 6.9

## C[C@@H]1NCCCc2[nH]c(=O)ccc2N2CN(c3cc(C(F)(F)F)c(F)cc3C2=O)c2ccc(F)cc21 [Example 137, (4S)-2^6,3^4-Difluoro-4-methyl-2^7-(trifluoromethyl)-1^1,1^2,2^1,2^2,2^3,2^4-hexahydro-5-aza-2(3,1)-quinazolina-1(5,6)-pyridina-3(1,2)-benzenacyclooctaphane-1^2,2^4-dione]
[1]
  Nav1.8, pIC50: 6.6
